The values that follow are results of earlier work, collected in article PMC4691061, “Repositioning of Thiourea-Containing Drugs as Tyrosinase Inhibitors” (International Journal of Molecular Sciences, 2015).

pIC50: −log10 of the molar value.

For the data set, the target named is tyrosinase. The note with it: tyrosinase; read-out: IC50; cited from earlier work.

On to `CCc1cc(C(N)=S)ccn1` [ethionamide], for which the pIC50 (commonly the negative decadic logarithm of the IC50, by convention in mol/L) was 5.40.
